Experimental findings from patent publication US11345703B2, “Substituted pyrazolo[1,5-a]pyrimidine macrocyclic compound” (SHENZHEN TARGETRX, INC., priority 2018, dated 2022) are described below.

Data set [1] in a line: Metabolic stability, human liver microsome test. It is filed as in vitro ADME. The conditions noted are these: liver microsomes, pH 7.4, 1 μM compound, 0.5 mg/mL protein, 37° C.; for half-life at 1 μM: read-out: human liver microsome test t1/2(min). The protocol:
(§1) Microsome tests: human liver microsomes: 0.5 mg/mL, Xenotech; rat liver microsomes: 0.5 mg/mL, Xenotech; coenzyme (NADPH/NADH): 1 mM, Sigma Life Science; magnesium chloride: 5 mM, 100 mM phosphate buffer agent (pH 7.4).
(§2) Preparation of the stock solution: A certain amount of the powder of the example compounds was accurately weighed and dissolved to 5 mM with DMSO.
(§3) Preparation of phosphate buffer (100 mM, pH 7.4): 150 mL of pre-prepared 0.5 M potassium dihydrogen phosphate solution was mixed with 700 mL of pre-prepared 0.5 M dipotassium hydrogen phosphate solution, and the pH of the mixture was adjusted with 0.5 M dipotassium hydrogen phosphate solution to 7.4. It was diluted 5 times with ultrapure water before use, and magnesium chloride was added to obtain a phosphate buffer (100 mM) containing 100 mM potassium phosphate, 3.3 mM magnesium chloride, and a pH of 7.4.
(§4) A solution of NADPH regeneration system (containing 6.5 mM NADP, 16.5 mM G-6-P, 3 U/mL G-6-P D, 3.3 mM magnesium chloride) was prepared and placed on wet ice before use.
(§5) Preparation of stop solution: acetonitrile solution containing 50 ng/mL propranolol hydrochloride and 200 ng/mL tolbutamide (internal standard). 25057.5 μL of phosphate buffer (pH 7.4) was taken into a 50 mL centrifuge tube, 812.5 μL of human liver microsomes was added respectively, and mixed uniformly to obtain a liver microsome dilution with a protein concentration of 0.625 mg/mL. 25057.5 μL of phosphate buffer (pH 7.4) was taken into a 50 mL centrifuge tube, and 812.5 μL of SD rat liver microsomes was added respectively, and mixed uniformly to obtain a liver microsome dilution with a protein concentration of 0.625 mg/mL.
(§6) Incubation of the sample: The stock solutions of the corresponding compounds were diluted to 0.25 mM as working solutions with an aqueous solution containing 70% acetonitrile before use. 398 μL of human liver microsome or rat liver microsome dilutions were added to 96-well incubation plates (N=2), and 2 μL of 0.25 mM working solutions were added and mixed uniformly, respectively.
(§7) Determination of metabolic stability: 300 μL of pre-cooled stop solution was added to each well of a 96-well deep well plate, which was placed on ice as a stop plate. The 96-well incubation plate and the NADPH regeneration system were placed in a 37° C. water bath, shaken at 100 rpm, and pre-incubated for 5 min. 80 μL of the incubation solution was removed from each well of the incubation plate, added to the stop plate, and mixed uniformly, and 20 μL of the NADPH regeneration system solution was supplemented as a sample at 0 min. Then, 80 μL of the NADPH regeneration system solution was added to each well of the incubation plate to start the reaction and the timing was started. […] 100 μL of the reaction solution was removed at 10, 30, and 90 min of the reaction, respectively, and added to the stop plate, and the reaction was terminated by vortexing for 3 min. The stop plate was centrifuged at 5000×g for 10 min at 4° C. 100 μL of the supernatant was removed into a 96-well plate to which 100 μL of distilled water was previously added, mixed uniformly, and sample analysis was performed by LC-MS/MS.
(§8) Data analysis: The peak areas of the corresponding compounds and the internal standard were detected by LC-MS/MS system, and the ratios of the peak areas of the compounds to the internal standard were calculated.
(§9) The metabolic stability in human and rat liver microsomes was evaluated by simultaneously testing and comparing the compounds of the present invention and the compound without deuteration. The non-deuterated compound LOXO-195 was used as a control.
(Liver microsomes are a subcellular fraction often used to study metabolism.)

The nature of data set [2]: Metabolic stability, rat liver microsome test. It is filed as in vitro ADME. Particulars: SD, liver microsomes, pH 7.4, 1 μM compound, 0.5 mg/mL protein, 37° C.; for half-life at 1 μM: read-out: rat liver microsome test t1/2(min). The protocol:
as §1, §2, §3, §4, §5, §6, §7, §8, §9

Data set [3] has as its system KM12 (TPM3-TRKA) cells. Put plainly: Cytotoxicity test, inhibition of KM12 cell proliferation (CellTiter-Glo). The format is cell-based. The conditions noted are these: Homo sapiens, 72 h, 3 days incubation. Here is the method: The inhibitory effect of the example compounds on the activity of KM12 (TPM3-TRKA) cells was examined.
Experimental methods: 1. Preparation of cell plates—KM12 cells were separately seeded in 96-well plates, and 8 ng/ml IL-3 was added to KM12 cells, and the cell plates were incubated in a carbon dioxide incubator overnight. 2. The test compound was dissolved in DMSO and subjected to a 3.16-fold gradient dilution with 9 compound concentrations in triplicate. 3. Compound Treatment of Cells—The compounds were transferred to cell plates at a starting concentration of 10 μM. The cell plates were incubated in a carbon dioxide incubator for 3 days. 4. Detection—The CellTiter-Glo reagent was added to the cell plate and incubated for 30 minutes at room temperature to stabilize the luminescence signal. Readings were performed using a PerkinElmer Envision multi-label analyzer.
(In ATP-based viability assays light output follows the ATP content of the culture.)

Each structure is given as a SMILES string.

On to `[2H]C([2H])([2H])C1([2H])CCc2ncc(F)cc2C2CCCN2c2ccn3ncc(c3n2)C(=O)N1` (racemic) [Compound 70, 9-fluoro-15-(methyl-d3)-2,11,16,20,21,24-hexaazapentocyclo[16.5.2.0^2,6,0^7,12,0^21,25]pentacosane-1(24),7,9,11,18(25),19,22-heptaene-17-one-15-d], for which the microsomal CLint – broadly, the rate of metabolic loss divided by the concentration – at 1 μM in data set [1] stood at 78.7 µL/min/mg; in data set [2], 35.5 µL/min/mg. For the same compound, the figures for the half-life at 1 μM in data set [1] and in data set [2] were 17.6 min and 39.1 min, respectively.

In the case of `C[C@@H]1CCc2ncc(F)cc2[C@@H]2CCCN2c2ccn3ncc(c3n2)C(=O)N1` [Φ-b, reference compound], the values for the microsomal CLint at 1 μM in data set [1] and in data set [2] were 78.4 µL/min/mg and 79.2 µL/min/mg, respectively. The results for the half-life at 1 μM in data set [1] and in data set [2] were 17.7 min and 17.5 min, respectively.

With `[2H]C1([2H])c2ncc(F)cc2[C@H]2CCCN2c2ccn3ncc(c3n2)C(=O)N[C@H](C)C1([2H])[2H]` [Compound L-1-a, (6R,15R)-9-fluoro-15-methyl-2,11,16,20,21,24-hexaazapentocyclo[16.5.2.0^2,6,0^7,12,0^21,25]pentacosane-1(24),7,9,11,18(25),19,22-heptaene-17-one-13,13,14,14-d4], in data set [1], the microsomal CLint at 1 μM was found to be 56.5 µL/min/mg and the half-life at 1 μM turned out to be 24.5 min. Further, in data set [2], the microsomal CLint at 1 μM came to 44.2 µL/min/mg and the half-life at 1 μM turned out to be 31.3 min.

On to `[2H]C1([2H])CCN2c3ccn4ncc(c4n3)C(=O)N[C@H](C)CCc3ncc(F)cc3[C@@]21[2H]` [Compound L-2-b, (6S,15R)-9-fluoro-15-methyl-2,11,16,20,21,24-hexaazapentocyclo[16.5.2.0^2,6,0^7,12,0^21,25]pentacosane-1(24),7,9,11,18(25),19,22-heptaene-17-one-5,5,6-d3], for which the microsomal CLint at 1 μM in data set [1] stood at 55.2 µL/min/mg; in data set [2], 57.9 µL/min/mg. Besides, the results for the half-life at 1 μM in data set [1] and in data set [2] were 25.1 min and 23.9 min, respectively.

On to `C[C@@H]1CCc2ncc(F)cc2C2CCCN2c2ccn3ncc(c3n2)C(=O)N1` (some centres unmarked) [Compound Φ, reference compound], for which, in data set [1], the microsomal CLint at 1 μM worked out at 94.3 µL/min/mg and the half-life at 1 μM worked out at 14.7 min. In addition, in data set [2], the microsomal CLint at 1 μM was 59.5 µL/min/mg and the half-life at 1 μM was determined as 23.3 min.

For the compound `[2H]C1([2H])c2ncc(F)cc2[C@@H]2CCCN2c2ccn3ncc(c3n2)C(=O)N[C@H](C)C1([2H])[2H]` [Compound L-1-b, (6S,15R)-9-fluoro-15-methyl-2,11,16,20,21,24-hexaazapentocyclo[16.5.2.0^2,6,0^7,12,0^21,25]pentacosane-1(24),7,9,11,18(25),19,22-heptaene-17-one-13,13,14,14-d4], in data set [1], the microsomal CLint at 1 μM was 49.8 µL/min/mg and the half-life at 1 μM is 27.8 min. Besides, in data set [2], the microsomal CLint at 1 μM was 75.1 µL/min/mg and the half-life at 1 μM was 18.5 min.

Take `C[C@@H]1CCc2ncc(F)cc2[C@H]2CCCN2c2ccn3ncc(c3n2)C(=O)N1` [Compound Φ-a, (6R,15R)-9-fluoro-15-methyl-2,11,16,20,21,24-hexaazapentocyclo[16.5.2.0^2,6,0^7,12,0^21,25]pentacosane-1(24),7,9,11,18(25),19,22-heptaene-17-one, reference compound]: the IC50 – broadly, the concentration needed to halve the response being measured – in data set [3] is 2.56 nM. Further, the microsomal CLint at 1 μM is 108 µL/min/mg in data set [1] and 83.2 µL/min/mg in data set [2]. Also, the half-life at 1 μM in data set [1] came out at 12.9 min; in data set [2], 16.7 min.

For `[2H]C1([2H])c2ncc(F)cc2C2CCCN2c2ccn3ncc(c3n2)C(=O)N[C@H](C)C1([2H])[2H]` (stereo partly drawn) [Compound 13, (15R)-9-fluoro-15-methyl-2,11,16,20,21,24-hexaazapentocyclo[16.5.2.0^2,6,0^7,12,0^21,25]pentacosane-1(24),7,9,11,18(25),19,22-heptaene-17-one-13,13,14,14-d4], the microsomal CLint at 1 μM turned out to be 38.5 µL/min/mg in data set [1] and 23.3 µL/min/mg in data set [2]. The results for the half-life at 1 μM in data set [1] and in data set [2] were 36 min and 59.4 min, respectively.

`[2H]C1([2H])CCN2c3ccn4ncc(c4n3)C(=O)N[C@H](C)CCc3ncc(F)cc3[C@]21[2H]` [Compound L-2-a, (6R,15R)-9-fluoro-15-methyl-2,11,16,20,21,24-hexaazapentocyclo[16.5.2.0^2,6,0^7,12,0^21,25]pentacosane-1(24),7,9,11,18(25),19,22-heptaene-17-one-5,5,6-d3]: 2.51 nM corresponded to half-maximal inhibition in data set [3] (IC50). Besides, the microsomal CLint at 1 μM in data set [1] worked out at 79.6 µL/min/mg; in data set [2] it was 45.6 µL/min/mg. Also, the half-life at 1 μM in data set [1] came to 17.4 min; in data set [2] it was 30.4 min.
